Marks after values point to notes of the source that are not given here.
Columns and labels:
Assay in all cases: In vitro agar-diffusion test
Format in all cases: cell-based
[1] = system: Saccharomyces pastorianus X52; design: key: T = trace
Protocol: (§1) The activity of scytophycin compounds against pathogenic fungi in standard in vitro agar-diffusion tests, using ¼"(6mm) discs holding ~30 µL of test solution, is illustrated in Tables 6-12.

[2] = system: Neurospora crassa X846
Protocol: as §1

[3] = system: Candida albicans X657
Protocol: as §1

[4] = system: Pythium ultimum X751
Protocol: as §1

[5] = system: Sclerotina homoeocarpa X768
Protocol: as §1

[6] = system: Rhizoctonia solani X767
Protocol: as §1

Scytophycin C
Size of Zone of Inhibition (mm) ([1]; Table 9, 1 mg/mL): 17 mm | Size of Zone of Inhibition (mm) ([2]; Table 9, 1 mg/mL): 30 mm | Size of Zone of Inhibition (mm) ([3]; Table 9, 1 mg/mL): 22 mm | Size of Zone of Inhibition (mm) ([4]; Table 12, 0.5 mg/mL): 12^a mm | Size of Zone of Inhibition (mm) ([5]; Table 12, 0.5 mg/mL): 32 mm | Size of Zone of Inhibition (mm) ([6]; Table 12, 0.5 mg/mL): 30 mm

Scytophycin D
Size of Zone of Inhibition (mm) ([1]; Table 8, 0.33 mg/mL): T^a | Size of Zone of Inhibition (mm) ([1]; Table 8, 1 mg/mL): 12 mm | Size of Zone of Inhibition (mm) ([2]; Table 8, 0.33 mg/mL): 20 mm | Size of Zone of Inhibition (mm) ([2]; Table 8, 1 mg/mL): 25 mm | Size of Zone of Inhibition (mm) ([3]; Table 8, 0.33 mg/mL): 14 mm | Size of Zone of Inhibition (mm) ([3]; Table 8, 1 mg/mL): 19 mm | Size of Zone of Inhibition (mm) ([4]; Table 11, 0.33 mg/mL): 24 mm | Size of Zone of Inhibition (mm) ([4]; Table 11, 1.0 mg/mL): 27 mm | Size of Zone of Inhibition (mm) ([5]; Table 11, 0.33 mg/mL): 20 mm | Size of Zone of Inhibition (mm) ([5]; Table 11, 1.0 mg/mL): 26 mm | Size of Zone of Inhibition (mm) ([6]; Table 11, 0.33 mg/mL): 22 mm | Size of Zone of Inhibition (mm) ([6]; Table 11, 1.0 mg/mL): 30 mm

Scytophycin E
Size of Zone of Inhibition (mm) ([1]; Table 8, 0.33 mg/mL): 18 mm | Size of Zone of Inhibition (mm) ([1]; Table 8, 1 mg/mL): 23 mm | Size of Zone of Inhibition (mm) ([2]; Table 8, 0.33 mg/mL): 26 mm | Size of Zone of Inhibition (mm) ([2]; Table 8, 1 mg/mL): 36 mm | Size of Zone of Inhibition (mm) ([3]; Table 8, 0.33 mg/mL): 22 mm | Size of Zone of Inhibition (mm) ([3]; Table 8, 1 mg/mL): 21 mm | Size of Zone of Inhibition (mm) ([4]; Table 11, 0.33 mg/mL): 30 mm | Size of Zone of Inhibition (mm) ([4]; Table 11, 1.0 mg/mL): 40 mm | Size of Zone of Inhibition (mm) ([5]; Table 11, 0.33 mg/mL): 33 mm | Size of Zone of Inhibition (mm) ([5]; Table 11, 1.0 mg/mL): 35 mm | Size of Zone of Inhibition (mm) ([6]; Table 11, 0.33 mg/mL): 33 mm | Size of Zone of Inhibition (mm) ([6]; Table 11, 0.33 mg/mL, second value of the cell, after the zone marked overgrowth): 15 mm | Size of Zone of Inhibition (mm) ([6]; Table 11, 1.0 mg/mL): 46 mm | Size of Zone of Inhibition (mm) ([6]; Table 11, 1.0 mg/mL, second value of the cell, after the zone marked overgrowth): 25 mm

Reference: patent EP0205308B1, “Scytophycins” (Moore, Richard Elliott, priority 1985, dated 1986)
